# Source: publication PMC8599855, “Detection of cancer stem cells by EMT-specific biomarker-based peptide ligands” (Scientific Reports, 2021)
# How the values were obtained:
# SAS cells [1] = assay: Fluorescence-based peptide binding assay (confocal microscopy); format: cell-based, human; details: 50 ng/μl labeled peptide, 37 °C; for Cell uptake: fluorescent signal in cytoplasm: one hour and later
# Experimental: Figure 1 Evaluation of peptide binding activity to SAS cells. (a) IF analysis of F7 peptide and SP peptide binding to SAS cells. […] Red: Lissamine Rhodamine labeled F7 peptide, Green: FITC labeled SP peptide, Blue: DAPI; BF, bright field; Scale bar, 10 μm. (b) The kinetics of F7 peptide binding to SAS-EGFP-Fluc cells. Cells were incubated in the presence of 50 ng/μl peptides at 37 °C for the indicated periods of time. (c) The kinetics of SP peptide binding to SAS-E2-crimson-P2A::ttksr39 cells at indicated time points.
# SAS-EGFP-Fluc and SAS-E2-crimson-P2A::ttksr39 were seeded on 8-well chamber slides and incubated with fluorescein labeled F7 peptide and SP peptide respectively for the different time points (0, 0.25, 0.5, 1, 2, 4, 8, 12 and 24 h). HEK293 cell lines without expression of vimentin and nucleolin served as a negative control for the specificity of peptides. After removal of the medium and a PBS rinse, the cells were fixed with 3.7% paraformaldehyde for 10 min followed by PBS washing for 3 times. Subsequently, all slides were mounted with VECTASHIELD Mounting Medium with DAPI (cat. H-1200, Vector Labs, Burligame, CA, USA) and covered with cover glasses before visualization under a laser-scanning microscope (Zeiss LSM 880, Jena, Germany) with Zen Blue software (ZEISS, Jena, Germany).
# [2] = test system: SAS spheres expressing CD44; assay: Peptide binding to tumor spheres (confocal microscopy); format: cell-based, human; details: fluorescein-labeled peptides, 24 h incubation
# From the text: Figure 2 Expression of CSC markers corresponding to peptide binding. (a) Phase-contrast photomicrographs of the spheres cultured from SAS-E2-crimson-P2A::ttksr39 cell line using the ultra-low attachment plate. Right panel: adherent cells. magnification, 100×. (b) ICC results showing the expression of representative CSC marker, CD44 and EMT markers, vimentin and nucleolin in spheres (upper panel) and adherent cells (lower panel). E-cadherin is an epithelial cell marker. (c) The peptide binding to tumor spheres which highly expressed CD44. The arrow indicates the presence of F7 and SP peptide. Red: Lissamine Rhodamine labeled F7 peptide, Green: FITC labeled SP peptide, Blue: DAPI; Scale bar, 20 μm. (d) Comparison of peptides binding to spheres and adherent cells. Yellow: colocalization.
# SAS cells were seeded in a 6-well cell culture plate with ultra-low attachment (Corning Costar, Tewksbury, MA, USA) at the density of 1 × 10^5 cells/well and incubated for 3–5 days in a 5% CO2 humidified incubator at 37 °C. All measurements on the SAS spheroids were carried out with a diameter of approximately 0.75 mm. For ICC-IF staining, the spheroids were fixed in 3.7% paraformaldehyde, washed with PBS and permeated with 0.1% Triton X-100 for 10 min before blocking with 20% FBS for 10 min at 37 °C, followed by the incubation with anti-CD44 antibody (GTX102111, GeneTex, Irvine, CA, USA) at 4 °C overnight. […]
# EMT-induced SAS cells = assay: Flow cytometry analysis of peptide binding to EMT-induced cells; format: cell-based, human; details: 50 ng/μl labeled peptide, 24 h, 37 °C, after Unc0642 and/or IR treatment
# Experimental: Figure 4 Evaluation of peptide binding activity to EMT derived cells induced by Unc0642/IR. After treatment of Unc0642 or radiation, EMT derived cells were incubated for 24 h in the presence of 50 ng/μl of fluorescein-labeled F7 (a) and SP peptide (b) at 37 °C respectively. FACS analysis was performed on gated live cells and light scatter parameters were measured using the 488 nm laser. The dot plot represented the particle size (FSC) versus granularity (SSC) of the cell population. The histogram represented the number of cells from P1 and P2 regions displaying a given fluorescence signal. Right graph: the quantitative analysis in the ratio of fluorescein-labeled peptides binding to SAS cells.
# The cells were treated for EMT induction as described above. Then, 50 ng/μl of F7 and SP peptides were added into the culture medium and co-incubated for 24 h. The cells were detached and fixed with 3.7% paraformaldehyde for 15 min followed by resuspension in PBS. FACS analysis was performed on gated live cells using a flow cytometer (Beckman Coulter CytoFLEX, Brea, CA, USA).
# SAS xenograft tumor = assay: Peptide binding in tumor after intra-tumoral injection (IF of excised tumor); format: in vivo, mouse; details: intra-tumoral injection on day 31, tumors excised after 24 h; Unc0642/IR-treated groups versus control; F7 in SAS-EGFP-Fluc, SP in SAS-wt tumors
# From the text: Figure 5 Evaluation of peptide binding ability in SAS xenograft mouse model after the treatment of Unc0642/IR. (a) Schematic diagram for in vivo EMT induction via the treatment of Unc0642 and radiation. (b) Evaluation of the effect of Unc0642/IR in SAS-EGFP-Fluc-bearing mice by optical bioluminescence image. (c) Tumor burden of each group was monitored at indicated time points. Data represent mean ± SD (n = 5–6/group). *p < 0.05, **p < 0.01, ***p < 0.001 by Student’s t-test. ***p = 0.00058, Ctrl versus Unc0642 on day 14; *p = 0.049, Ctrl versus IR on day 18; **p = 0.0023, Ctrl versus IR on day 21; *p = 0.0179, Ctrl versus IR on day 24; *p = 0.036, Ctrl versus Unc0642 + IR on day 24. (d) The body weights of mice were recorded during the period of monitoring. Data are mean ± SD (n = 5–6/group). (e, f) Mice were given an intra-tumoral injection of peptide. At 24 h later, tumor samples were excised and the signal derived from the peptide was observed using confocal microscopy. Representative confocal micrographs of tissue sections immunolabeled with CD44. The arrowheads indicate the presence of F7 and SP peptide. Blue: DAPI. Scale bar, 20 μm. […]
# [3] = 37 °C, ref previous studies; cited from earlier work
# From the text: Despite the cancer cells captured by F7 or SP peptide were identified as CSCs that expressed CD44, single peptide binding cells (F7+ or SP+) and double peptides binding cells (F7+ /SP+ , as shown in Fig. 2d) were considered as different subpopulations that exist at the different stages of cancer. […] There are several possibilities for these findings. First, the permeability ...
# SAS cells [4] = assay: Western blot of EMT/CSC markers after in vitro induction of EMT; format: cell-based, human; details: TGF-β1 10 and 20 ng/ml, SAS cells, immunoblotting (Fig. S2)
# Experimental: To induce the EMT of SAS cells, cells were seeded in 60 mm^2 dishes at the density of 1 × 10^6 cells/dish overnight and incubated with 1.25 and 10 μM Unc0642. After 24 h, cells were exposed under 2 Gy and 4 Gy of radiation by a RS2000 Series Biological Irradiator (Rad Source Technologies Inc, Buford, GA, USA) and replaced with fresh Unc0642 containing medium every 24 h. The expression of vimentin and E-cadherin were detected by western blotting.
# Cultured cells were placed on ice, washed by ice-cold PBS and lysed using CytoBuster Protein Extraction Reagent (cat. 71,009, Bedford, MA, USA) containing Protease Inhibitor Cocktail Set I (cat. 539131, Millipore, Bedford, MA, USA). Cells were then scraped, collected in Eppendorf tubes and the sonicated for 30 min. The lysate was spun down at 12,000 g for 10 min at 4 °C. The protein content was measured using Bradford reagent (BIO-RAD, Hercules, CA, USA). The equal amounts of protein (40 μg) were separated in SDS-PAGE gels (30% Acrylamide/Bis Solution, 29:1, cat. 1610157, BIO-RAD, Hercules, CA, USA) and transferred to PVDF membranes (cat. NEF1002001PK, Perkin-Elmer life sciences, Boston, MA, USA). For immunoblotting, membranes were cut in terms of the molecular weight range prior to hybridization with primary antibody for vimentin (GTX100619, GeneTex, Irvine, CA, USA), nucleolin (GTX132778, GeneTex, Irvine, CA, USA), E-cadherin (GTX50757, GeneTex, Irvine, CA, USA) and b-actin (GTX109639, GeneTex, Irvine, CA, USA) overnight at 4 °C and then incubated with horseradish peroxidase HRP-conjugate goat anti-rabbit IgG (GeneTex, Irvine, CA, USA). Protein signals were visualized using a LumiFast Chemiluminescence Detection Kit (cat. JT96-K001S, T-Pro Biotechnology, Taiwan). Image capture was performed on an ImageQuant LAS4000 biomolecular image (GE healthcare life, Chicago, IL, USA). The intensities of protein bands were quantitated using ImageJ Gel Analysis program. Quantification of protein expression was performed by Image J. b-actin was used as loading control.
Substance,Intracellular localisation at 24 h (SAS cells [1]),Cell uptake: fluorescent signal in cytoplasm (SAS cells [1]),Binding to CD44 expressing spheres [2],Peptide binding to EMT-induced SAS cells (FACS) (EMT-induced SAS cells),Amount of labeled peptide in tumor tissue (SAS xenograft tumor),Stability in the presence of serum [3],E-cadherin expression (SAS cells [4]),Vimentin expression (SAS cells [4])
SAHGTSTGVPWP [SP peptide],remained at the edge of nucleus and no longer moved,appeared in cytoplasm gradually and accumulated with the incubation time,able to bind and detect CSCs,significantly higher in combined Unc0642- and IR-treated SAS cells,increased in tumor tissues,high stability,,
TGF-β1: multifunctional cytokine used to induce EMT,,,,,,,downregulated the expression of E-cadherin,upregulated the expression of vimentin
DMPGTVLP [F7 peptide],remained at the edge of nucleus and no longer moved,appeared in cytoplasm gradually and accumulated with the incubation time,able to bind and detect CSCs,increased with increasing dose of IR and Unc0642,increased in tumor tissues,high stability,,
